Data from patent US7109193B2, “Tricyclic diazepines tocolytic oxytocin receptor antagonists” (Wyeth, priority 2001, dated 2006).

Target: T1, human oxytocin receptor (Homo sapiens, UniProt P30559)
T1 construct: host or cells: CHO cells (pcDNA3.1 vector)
T1 sequence (P30559 1-389): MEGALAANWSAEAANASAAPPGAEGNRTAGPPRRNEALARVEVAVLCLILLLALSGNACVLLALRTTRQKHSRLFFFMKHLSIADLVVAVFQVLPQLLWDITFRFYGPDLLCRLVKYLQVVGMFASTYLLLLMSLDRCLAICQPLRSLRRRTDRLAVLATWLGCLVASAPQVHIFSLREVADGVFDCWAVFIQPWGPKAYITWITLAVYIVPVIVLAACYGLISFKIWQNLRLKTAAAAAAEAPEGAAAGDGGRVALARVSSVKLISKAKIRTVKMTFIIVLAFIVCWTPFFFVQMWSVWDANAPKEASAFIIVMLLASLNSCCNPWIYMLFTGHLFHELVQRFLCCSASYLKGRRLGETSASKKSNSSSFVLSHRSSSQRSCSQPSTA
Test: Oxytocin binding in Chinese Hamster Ovary cell membranes expressing human oxytocin receptors
Conditions: 100 nM, CHO cell membranes, [3H]oxytocin, values without parentheses; for inhibition at 0.1 µM: read-out: OT % inhibition @ 100% nM

inhibition at 0.1 µM	SMILES	OT % inhibition @ 100% nM
87%	COc1ccccc1-c1ccc(C(=O)N2Cc3ccc(C(=O)N(C)CCCN(C)C)n3Cc3ccccc32)cc1OC [Example 107, 10-[(2,2′-Dimethoxy[1,1′-biphenyl]-4-yl)carbonyl]-N-[3-(dimethylamino)propyl]-N-methyl-10,11-dihydro-5H-pyrrolo[2,1-c][1,4]benzodiazepine-3-carboxamide]	–
78%	COc1cccc(-c2ccc(C(=O)N3Cc4ccc(C(=O)N5CCC(N6CCCC6)CC5)n4Cc4ccccc43)cc2OC)c1 [Example 146, {10-[(2,3′-Dimethoxy[1,1′-biphenyl]-4-yl)carbonyl]-10,11-dihydro-5H-pyrrolo[2,1-c][1,4]benzodiazepin-3-yl}[4-(1-pyrrolidinyl)-1-piperidinyl]methanone]	–
88%	COc1ccccc1-c1ccc(C(=O)N2Cc3ccc(C(=O)N4CCC(N5CCCC5)CC4)n3Cc3ccccc32)cc1C [Example 137, {10-[(2′-Methoxy-2-methyl[1,1′-biphenyl]-4-yl)carbonyl]-10,11-dihydro-5H-pyrrolo[2,1-c][1,4]benzodiazepin-3-yl}[4-(1-pyrrolidinyl)-1-piperidinyl]methanone]	–
49%	CN(C)CCCN(C)C(=O)c1ccc2n1Cc1ccccc1N(C(=O)c1ccc(-c3cccc4ccccc34)cc1Cl)C2 [Example 109, 10-[2-Chloro-4-(1-naphthyl)benzoyl]-N-[3-(dimethylamino)propyl]-N-methyl-10,11-dihydro-5H-pyrrolo[2,1-c][1,4]benzodiazepine-3-carboxamide]	–
78%	Cc1cc(C(=O)N2Cc3ccc(C(=O)N4CCC(N5CCCC5)CC4)n3Cc3ccccc32)ccc1-c1ccccc1C(F)(F)F [Example 148, (10-{[2-Methyl-2′-(trifluoromethyl)[1,1′-biphenyl]-4-yl]carbonyl}-10,11-dihydro-5H-pyrrolo[2,1-c][1,4]benzodiazepin-3-yl)[4-(1-pyrrolidinyl)-1-piperidinyl]methanone]	–
–	COc1cc2c(cc1OC)N(C(=O)c1ccc(-c3ccccc3C(F)(F)F)c(C)c1)Cc1ccc(C(=O)N(C)CCCN(C)C)n1C2.Cl [Example 13, N-Methyl-[N-(3-dimethylamino)propyl]-7,8-dimethoxy-10-{[2-methyl-2′-(trifluoromethyl)[1,1′-biphenyl]-4-yl]carbonyl}-10,11-dihydro-5H-pyrrolo[2,1-c][1,4]benzodiazepine-3-carboxamide hydrochloride salt]	33%
–	COc1cc(C(=O)N2Cc3ccc(C(=O)N4CCC[C@H]4CN4CCCC4)n3Cc3ccccc32)ccc1-c1ccccc1Cl [Example 33, {[10-(2-Methoxy)-2′-chloro-[1,1′-biphenyl]-4-yl]carbonyl}-[(2S)-[(2-pyrrolidin-1-yl)methyl]pyrrolidin-1-yl]-10,11-dihydro-5H-pyrrolo[2,1-c][1,4]benzodiazepin-3-yl-methanone]	101%
–	COc1cccc(-c2ccc(C(=O)N3Cc4ccc(C(=O)NCCC5CCCN5C)n4Cc4ccccc43)cc2C)c1 (stereo not shown) [Example 164, 10-[(3′-Methoxy-2-methyl[1′1′-biphenyl]-4-yl)carbonyl]-N-[2-(1-methyl-2-pyrrolidinyl)ethyl]-10,11-dihydro-5H-pyrrolo[2,1-c][1,4]benzodiazepine-3-carboxamide]	54%
–	COc1ccccc1-c1ccc(C(=O)N2Cc3ccc(C(=O)N4CCC[C@H]4CN4CCCC4)n3Cc3ccccc32)cc1C [Example 259, {10-[(2′-Methoxy-2-methyl[1,1′-biphenyl]-4-yl)carbonyl]-10,11-dihydro-5H-pyrrolo[2,1-c][1,4]benzodiazepin-3-yl}[(2S)-2-(1-pyrrolidinylmethyl)pyrrolidinyl]methanone]	97%
–	COc1cccc(-c2ccc(C(=O)N3Cc4ccc(C(=O)N5CCN(CCN(C)C)CC5)n4Cc4ccccc43)cc2C)c1 [Example 199, {4-[2-(Dimethylamino)ethyl]-1-piperazinyl{}10-[(3′-methoxy-2-methyl[1,1′-biphenyl]-4-yl)carbonyl]-10,11-dihydro-5H-pyrrolo[2,1-c][1,4]benzodiazepin-3-yl}methanone]	84%
26%	COc1cc(C(=O)N2Cc3ccc(C(=O)NCCCn4ccnc4)n3Cc3ccccc32)ccc1-c1cccc2ccccc12 [Example 131, N-[3-(1H-Imidazol-1-yl)propyl]-10-[3-methoxy-4-(1-naphthyl)benzoyl]-10,11-dihydro-5H-pyrrolo[2,1-c][1,4]benzodiazepine-3-carboxamide]	–
76%	COc1cccc(-c2ccc(C(=O)N3Cc4ccc(C(=O)N5CCC(N6CCCCC6)CC5)n4Cc4ccccc43)cc2C)c1 [Example 114, {10-[(2-Methyl-3′-methoxy[1,1′-biphenyl]-4-yl)carbonyl]-10,11-dihydro-5H-pyrrolo[2,1-c][1,4]benzodiazepin-3-yl}[4-(1-piperidinyl)-1-piperidinyl]methanone]	–
–	COc1ccccc1-c1ccc(C(=O)N2Cc3ccc(C(=O)N4CC[C@@H](N(C)C)C4)n3Cc3ccccc32)cc1 [Example 279, [(3R)-3-(Dimethylamino)pyrrolidinyl]{10-[(2′-methoxy[1,1′-biphenyl]-4-yl)carbonyl]-10,11-dihydro-5H-pyrrolo[2,1-c][1,4]benzodiazepin-3-yl}methanone]	100%
60%	Cc1ccccc1-c1ccc(C(=O)N2Cc3ccc(C(=O)NCCN4CCCCC4)n3Cc3ccccc32)cc1 [Example 153, 10-[(2′-Methyl[1,1′-biphenyl]-4-yl)carbonyl]-N-[2-(1-piperidinyl)ethyl]-10,11-dihydro-5H-pyrrolo[2,1-c][1,4]benzodiazepine-3-carboxamide]	–
69%	COc1cccc(-c2cc(OC)c(C(=O)N3Cc4ccc(C(=O)N5CCC(N6CCCC6)CC5)n4Cc4ccccc43)cc2Cl)c1 [Example 143, {10-[(6-Chloro-3,3′-dimethoxy[1,1′-biphenyl]-4-yl)carbonyl]-10,11-dihydro-5H-pyrrolo[2,1-c][1,4]benzodiazepin-3-yl}[4-(1-pyrrolidinyl)-1-piperidinyl]methanone]	–
–	COc1cccc(-c2cc(OC)c(C(=O)N3Cc4ccc(C(=O)N5CCC[C@H]5CN5CCCC5)n4Cc4ccccc43)cc2Cl)c1 [Example 268, {10-[(6-Chloro-3,3′-dimethoxy[1,1′-biphenyl]-4-yl)carbonyl]-10,11-dihydro-5H-pyrrolo[2,1-c][1,4]benzodiazepin-3-yl}[(2S)-2-(1-pyrrolidinylmethyl)pyrrolidinyl]methanone]	90%
